What all share (assay): growth of human tumour cells (NCI), 48 h
Test [1] deals with DU-145.
The test system of test [2] is NCI-H226.
Test [3] relates to SF-539.
Test [4] concerns HL-60.
In test [5] the test system is HOP-92.
In test [6] the test system is SF-268.
Test [7] relates to SK-OV-3.
Test [8] deals with OVCAR-5.
Test [9] relates to Malme-3M.
Test [10] relates to UACC-62.
Test [11] relates to RXF 393.
The test system of test [12] is PC-3.
Test [13] has as its system HCT-15.
Test [14] concerns NCI-H23.
The test system of test [15] is BT-549.
Test [16] relates to SK-MEL-5.
For test [17], the system named is OVCAR-8.
Test [18] concerns TK-10.
The subject of test [19] is HT-29.

Several values for one entry are separate records, joined by “and”; a condition that tells them apart may be missing. Identical values can stand only once.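 Briefly, cells in 96-well plates were exposed to five compound concentrations for 48 h, and endpoints were estimated by linear interpolation. Abbreviation: GI50, concentration required for 50% inhibition of growth.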 Activity calls are given as the source filed them. Rule as the data show it: active = GI50 up to about 1.1 µM and inactive = higher.

Take `COc1cc2c(cc1OC)C1Cc3cc(OC)c(OC)cc3C(C2)N1C`: the GI50 was > 75 µM (inactive) in test [1]; > 75 µM (inactive) in test [2]; 20.8 µM (inactive) in [3]; 14.9 µM (inactive) in test [4]; 7.71 µM (inactive) in [5]; > 100 µM (inactive) in test [6]. Further, the GI50 in test [7] was > 75 µM (inactive); in [8], > 100 µM (inactive); in test [9], > 75 µM (inactive); in test [10], 61.1 µM (inactive); in [11], > 75 µM (inactive); in test [12], > 75 µM (inactive). Besides, the GI50 in [13] was above 100 µM; in [14] it was > 100 µM (inactive) and 54.7 µM (inactive); in test [15], > 75 µM (inactive); in test [16] it was > 100 µM (inactive); in test [17], > 100 µM (inactive).

Regarding `O=C1C/C(=N/c2ccc(Cl)cc2)C(c2ccccc2)N1c1ccccc1` (configuration not stated), the GI50 in test [18] is 23.9 µM (inactive); in test [1], 6.61 µM (inactive); in test [2], 10.1 µM (inactive); in [3], 14 µM (inactive); in [4] it was 2.96 µM (inactive); in [5], 10.3 µM (inactive). The GI50 in test [6] is 3.6 µM (inactive); in [7], 5.92 µM (inactive); in test [9] it was 19.5 µM (inactive); in test [10], 1.43 µM (inactive); in test [11], 35 µM (inactive); in test [12] it was 3.28 µM (inactive). Also, the GI50 in [13] is 5.92 µM; in test [19], 5.62 µM (inactive); in test [14] it was 10 µM (inactive); in [15] it was 5.28 µM (inactive); in [16], 5.9 µM (inactive).

Consider `CC(=O)N(C)C(C(=O)N1CC(C)CC1C(=O)N(C)C1C(=O)NC(CC(C)C)C(=O)N2CC(C)CC2C(=O)NC(CC(C)C)C(=O)N(C)C(C(C)C)C(=O)N2CCCC2C(=O)N(C)C(CC(C)C)C(=O)NCC(=O)OC1C)C(C)C` (configuration not stated), for which the GI50 in test [18], in [1], in test [2], in test [3], in test [4] and in [5] was > 100 µM (inactive) each time. The GI50 in [6], in [7], in [8], in test [10], in test [11] and in [12] was > 100 µM (inactive) in each case. Further, the GI50 is above 100 µM in [13]; > 100 µM (inactive) in [19]; > 100 µM (inactive) in test [14]; > 100 µM (inactive) in [15]; > 100 µM (inactive) in test [16]; > 100 µM (inactive) in test [17].

For `O/N=C1\C=Cc2nn(-c3ccccc3)nc2\C1=N/O`, the GI50 in test [18] is 17.8 µM (inactive); in [1], 1.07 µM (active); in test [2] it was 2.1 µM (inactive); in test [3], 4.22 µM (inactive); in [4], 2.03 µM (inactive); in [5], 8.26 µM (inactive). Further, the GI50 was 4.27 µM (inactive) in [6]; 6.35 µM (inactive) in test [7]; 7.41 µM (inactive) in test [8]; 17.7 µM (inactive) in test [9]; 1.3 µM (inactive) in [10]; 3.25 µM (inactive) in [12]. In addition, the GI50 is 4.38 µM in [13]; 4.85 µM (inactive) in test [19]; 3.77 µM (inactive) in [14]; 3.4 µM (inactive) in test [15]; 2.24 µM (inactive) in test [16]; 3.01 µM (inactive) in [17].

For `COc1ccc(-c2nc(-c3ccc(OC)cc3)n(-c3ccccc3)n2)cc1`, the GI50 is > 100 µM (inactive) in test [18]; > 100 µM (inactive) in [1]; > 100 µM (inactive) in test [2]; > 100 µM (inactive) in test [3]; 30.5 µM (inactive) in test [4]; 52 µM (inactive) in test [5]. In addition, the GI50 in [6] is > 100 µM (inactive); in [7] it was > 100 µM (inactive); in [8] it was > 100 µM (inactive); in [10], 86.5 µM (inactive); in test [11], 32.8 µM (inactive); in test [12], > 100 µM (inactive). For the same molecule, the GI50 was above 100 µM in test [13]; 19.9 µM (inactive) in test [19]; 39.4 µM (inactive) in test [14]; 38.5 µM (inactive) in test [15]; 54.1 µM (inactive) in test [16]; > 100 µM (inactive) in test [17].

For `CCN(CC)c1nc(N(C)C)c2cc(OC)ccc2n1`, the GI50 was 34.4 µM (inactive) in test [18]; 42.2 µM (inactive) in [1]; 21.9 µM (inactive) in test [2]; 21.3 µM (inactive) in test [3]; 16.6 µM (inactive) in test [4]; 24.2 µM (inactive) in test [5]. Moreover, the GI50 in [6] was 25.8 µM (inactive); in test [8] it was 62.5 µM (inactive); in test [9], 20.3 µM (inactive); in [10], 25.8 µM (inactive); in test [11], 24.3 µM (inactive); in [12], 33.2 µM (inactive). The GI50 in test [13] is 30.6 µM; in [19] it was 10.2 µM (inactive); in test [14], 29.6 µM (inactive); in [15], 56.4 µM (inactive); in [16], 17.4 µM (inactive); in test [17], 26.2 µM (inactive).

For `CC(C)(C)OC(=O)N1C(C2=COc3ccccc3O2)=COc2ccccc21`, the GI50 in test [18] was 33.6 µM (inactive); in test [1] it was 28 µM (inactive); in test [2], 23.8 µM (inactive); in test [3] it was 19.3 µM (inactive); in [4] it was 19 µM (inactive); in [5], 19.6 µM (inactive). In addition, the GI50 was 21.3 µM (inactive) in test [6]; 29 µM (inactive) in test [7]; 33.3 µM (inactive) in test [8]; 22.9 µM (inactive) in [9]; 15.7 µM (inactive) in test [10]; 5.18 µM (inactive) in test [11]. For the same molecule, the GI50 in test [12] is 32.8 µM (inactive); in test [13], 31.2 µM; in test [19], 32 µM (inactive); in [14], 29.7 µM (inactive); in test [15], 24.8 µM (inactive); in test [16], 19.1 µM (inactive). The GI50 in [17] is 28.3 µM (inactive).

Consider `COc1cc(-c2cn(S(=O)(=O)c3ccc(C)cc3)c3ccccc23)nc(-c2cn(S(=O)(=O)c3ccc(C)cc3)c3ccccc23)n1`, for which the GI50 in test [18] is 8.22 µM (inactive); in test [1], 0.625 µM (active); in test [2] it was 0.935 µM (active); in test [3] it was 0.222 µM (active); in test [4] it was 2.19 µM (inactive); in test [5], 4.98 µM (inactive). Moreover, the GI50 in test [6] was 0.755 µM (active); in [7], 2.25 µM (inactive); in test [8], 1.13 µM (inactive); in [10] it was 0.632 µM (active); in test [11] it was 0.372 µM (active); in [12] it was 0.773 µM (active). The GI50 is 0.592 µM in test [13]; 0.573 µM (active) in test [19]; 0.245 µM (active) in test [14]; 4.85 µM (inactive) in test [15]; 0.566 µM (active) in test [16]; 0.94 µM (active) in [17].

As for `O=C1c2cc3ccccc3cc2C2(c3ccc(Cl)cc3)N[C@H]3CCCC[C@@H]3N12` (some centres not stated), the GI50 in [18] was 11.7 µM (inactive); in [1] it was 17.9 µM (inactive); in test [3], 10.1 µM (inactive); in test [4], 13.6 µM (inactive); in [5], 27.8 µM (inactive); in [6], 16.5 µM (inactive). Further, the GI50 in test [7] is 14.6 µM (inactive); in [8] it was 21 µM (inactive); in test [9], 15.1 µM (inactive); in test [10] it was 15 µM (inactive); in test [11], 9.89 µM (inactive); in test [12], 14.9 µM (inactive). The GI50 is 21.6 µM in [13]; 14.4 µM (inactive) in [19]; 14.6 µM (inactive) in test [14]; 20 µM (inactive) in test [15]; 16.7 µM (inactive) in test [16]; 5.77 µM (inactive) in [17].

Turning to `CC(C)c1[nH]nc(C(N)=O)c1/N=N/N(C)C`, the GI50 in [18] is 64.7 µM (inactive); in test [1], 97.9 µM (inactive); in [2] it was 24.1 µM (inactive); in [3] it was 69.2 µM (inactive); in test [4] it was > 100 µM (inactive); in test [5], 47.4 µM (inactive). The GI50 is 59.8 µM (inactive) in test [6]; 52.5 µM (inactive) in [7]; > 100 µM (inactive) in test [9]; 67.9 µM (inactive) in test [10]; 63.1 µM (inactive) in test [11]; > 100 µM (inactive) in [12]. For the same molecule, the GI50 in [13] is above 100 µM; in test [19], > 100 µM (inactive); in test [14], > 100 µM (inactive); in test [15], 34.9 µM (inactive); in test [16] it was 88.1 µM (inactive); in [17] it was > 100 µM (inactive).

For the molecule `Cc1ccc(/C=C2\Sc3scc(-c4ccccc4)[n+]3C2=O)cc1`, the GI50 is 19.8 µM (inactive) in test [18]; 24.7 µM (inactive) in test [1]; 37.3 µM (inactive) in test [2]; 22.3 µM (inactive) in test [3]; 2.69 µM (inactive) in [4]; 15.4 µM (inactive) in test [5]. The GI50 in [6] was 17.9 µM (inactive); in test [7], 44.2 µM (inactive); in test [8] it was 33.4 µM (inactive); in [10] it was 16.7 µM (inactive); in test [11], 25.9 µM (inactive); in [12], 29 µM (inactive). For the same molecule, the GI50 was 19.8 µM in [13]; 24.7 µM (inactive) in test [19]; 17.5 µM (inactive) in test [14]; 17.4 µM (inactive) in test [15]; 21.6 µM (inactive) in test [16]; 22.4 µM (inactive) in [17].

The values are drawn from ChEMBL document CHEMBL1201862, “PubChem BioAssay data set” (2004).
